Experimental data reported in BindingDB's records for doi:10.1016/j.bioorg.2016.02.004 (Universiti Teknologi Mara (Uitm), Puncak Alam Campus, 2016).

Molecular target: Alpha-glucosidase MAL12 (Saccharomyces cerevisiae (strain ATCC 204508 / S288c), UniProt P53341)
Assay: Assay for α-Glucosidase Inhibitory Activity
Method: The 135 µL of 50 mM phosphate saline buffer pH (6.8), solution of enzyme (20 µL), and 20 µL of test sample with 70% DMSO was added to 96-well plate. The samples were incubated for 15 min. Pre-read of the plate was taken after incubation using SpectraMax. substrate (pNPG) (25 µL) was added before final reading was takenat 400 nm on Spectra Max.

Sequence of Alpha-glucosidase MAL12 (P53341 whole entry): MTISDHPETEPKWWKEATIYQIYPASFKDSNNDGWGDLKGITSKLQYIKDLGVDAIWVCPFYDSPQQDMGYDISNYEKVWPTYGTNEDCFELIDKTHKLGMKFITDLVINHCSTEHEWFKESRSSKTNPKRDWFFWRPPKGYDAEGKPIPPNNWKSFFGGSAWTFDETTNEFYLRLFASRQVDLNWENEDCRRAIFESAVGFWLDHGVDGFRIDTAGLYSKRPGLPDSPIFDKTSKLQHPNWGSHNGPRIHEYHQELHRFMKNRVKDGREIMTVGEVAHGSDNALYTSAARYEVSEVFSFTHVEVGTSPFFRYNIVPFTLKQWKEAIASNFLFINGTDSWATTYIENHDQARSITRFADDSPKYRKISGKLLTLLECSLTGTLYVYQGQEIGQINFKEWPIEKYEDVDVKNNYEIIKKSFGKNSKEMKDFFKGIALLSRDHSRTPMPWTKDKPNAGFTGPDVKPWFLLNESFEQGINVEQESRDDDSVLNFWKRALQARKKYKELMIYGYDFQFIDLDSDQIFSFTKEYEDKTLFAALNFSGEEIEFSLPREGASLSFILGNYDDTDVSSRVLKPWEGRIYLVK

SMILES	IC50
Cc1cccc2nc(-c3ccc(O)cc3O)[nH]c12 [2-(2',4'-Dihydroxyphenyl)-7-methyl-1H-benzo[d]imidazole (2)]	60.9 µM
COc1ccc(-c2nc3cccc(C)c3[nH]2)c(O)c1 [2-(2'-Hydroxy-4'-methoxyphenyl)-7-methyl-1H-benzo[d]imidazole (20)]	29.8 µM
Cc1cccc2nc(-c3ccccc3F)[nH]c12 [2-(2'-Fluorophenyl)-7-methyl-1H-benzo[d]imidazole (8)]	34.4 µM
Cc1cccc2nc(-c3ccccc3O)[nH]c12 [2-(2'-Hydroxyphenyl)-7-methyl-1H-benzo[d]imidazole (19)]	16.1 µM
Cc1cccc2nc(-c3cccc(O)c3O)[nH]c12 [2-(2',3'-Dihydroxyphenyl)-7-methyl-1H-benzo[d]imidazole (15)]	85.6 µM
Cc1cccc2nc(-c3ccccc3Cl)[nH]c12 [2-(2'-Chlorophenyl)-7-methyl-1H-benzo[d]imidazole (25)]	5.3 µM
Cc1cccc2nc(-c3ccccc3[N+](=O)[O-])[nH]c12 [2-(2'-Nitrophenyl)-7-methyl-1H-benzo[d]imidazole (7)]	44.6 µM
COc1ccc(O)c(-c2nc3cccc(C)c3[nH]2)c1 [2-(2'-Hydroxy-5'-methoxyphenyl)-7-methyl-1H-benzo[d]imidazole (14)]	45.2 µM

Continued, values first:

IC50	SMILES
726 µM	Cc1cccc2nc(-c3ccncc3)[nH]c12 [7-Methyl-2-(pyridin-4'-yl)-1H-benzo[d]imidazole (24)]
25.4 µM	Cc1cccc2nc(-c3ccc(O)c(O)c3)[nH]c12 [2-(3',4'-Dihydroxyphenyl)-7-methyl-1H-benzo[d]imidazole (10)]
125 µM	Cc1cccc2nc(-c3cc(O)ccc3O)[nH]c12 [2-(20,50-Dihydroxyphenyl)-7-methyl-1H-benzo[d]imidazole (13)]
165 µM	Cc1cccc2nc(-c3cccc(F)c3)[nH]c12 [2-(3'-Fluorophenyl)-7-methyl-1H-benzo[d]imidazole (9)]
95.6 µM	Cc1cccc2nc(-c3ccc(O)cc3)[nH]c12 [2-(4'-Hydroxyphenyl)-7-methyl-1H-benzo[d]imidazole (17)]
145 µM	Cc1cccc2nc(-c3ccc(Cl)cc3)[nH]c12 [2-(4'-Chlorophenyl)-7-methyl-1H-benzo[d]imidazole (27)]
226 µM	COc1ccc(-c2nc3cccc(C)c3[nH]2)cc1O [2-(3'-Hydroxy-4'-methoxyphenyl)-7-methyl-1H-benzo[d]imidazole (21)]
326 µM	Cc1cccc2nc(-c3cccc(O)c3)[nH]c12 [2-(3'-Hydroxyphenyl)-7-methyl-1H-benzo[d]imidazole (18)]
136 µM	Cc1cccc2nc(-c3ccc(F)cc3)[nH]c12 [2-(4'-Fluorophenyl)-7-methyl-1H-benzo[d]imidazole (16)]
